Literature values in patent US6245768A, “1-(N'-(arylalkylaminoalkyl)) aminoisoindoles; a new class of dopamine receptor subtype specific ligands” (Neurogen Corporation, priority 1999, dated 2001).
Read-outs that look alike come from different tables or passages of the source. Each block holds one molecule with its values, some of them ahead of it.

Assays:
D1 dopamine receptor = conditions: related art
D2 receptors = conditions: related art

Compound: CN1CCN(C2=Nc3cc(Cl)ccc3Nc3ccccc32)CC1 [clozapine]
incidence of extrapyramidal side effects (EPS) (compared with classical neuroleptics, related art): lesser incidence of extrapyramidal side effects (EPS) than classical neuroleptics

binding at the D1 dopamine receptor (D1 dopamine receptor): binds relatively weakly
binding affinity at D2 receptors (D2 receptors): subnanomolar range
Compound: O=C(CCCN1CCC(O)(c2ccc(Cl)cc2)CC1)c1ccc(F)cc1 [haloperidol]

Compound: CCN1CCCC1CNC(=O)c1cc(S(N)(=O)=O)ccc1OC (stereo not shown) [sulpiride]
incidence of extrapyramidal side effects (EPS) (in vivo): lesser incidence of extrapyramidal side effects (EPS) than classical neuroleptics
